According to patent US11345701B1, “KRAS mutant protein inhibitors” (Jacobio Pharmaceuticals Co., Ltd., priority 2021, dated 2022):

Assays:
[1] = molecular target: HIS-KRAS(G12C) (Homo sapiens (Human), UniProt P01116, G12C); experiment: SOS1 catalyzed nucleotide exchange assay (TR-FRET); assay type: biochemical
Procedure: TR-FRET signals were then read on Tecan Spark multimode microplate reader. […] TR-FRET ratios for each individual wells were calculated by equation: TR-FRET ratio=(Signal F515/Signal F486)*10000. Then the data were analyzed using a 4-parameter logistic model to calculate IC50 values.

[2] = test system: NCI-H358 cells expressing KRAS G12C mutant protein; experiment: Phospho-ERK1/2(THR202/TYR204) HTRF assay; assay type: cell-based
Procedure: The NCI-H358 cells in culture medium were seeded in 96-well plates at a concentration of 40,000 cells/well and then put in a 37° C./5% CO2 cell incubator to incubate overnight. […] After 2 hours incubation in a 37° C./5% CO2 cell incubator, the assay medium in 96-well plates was removed, then 50 μL of 1× blocking reagent-supplemented lysis buffer (Cisbio) was added and the plates were incubated at 25° C. for 45 min with shaking. 10 μL of cell lysates from the 96-well plates were transferred to a 384-well plate (Greiner) containing 2.5 μL/well HTRF® pre-mixed antibodies (Cisbio 64AERPEH). Incubate 4 hours at 25° C. and then read HTRF signals on Tecan Spark multimode microplate reader. The data were analyzed using a 4-parameter logistic model to calculate IC50 values.

[3] = Mouse pharmacokinetic study; assay type: in vivo, Balb/c mouse
Procedure: The purpose of this study was to evaluate the pharmacokinetic properties of compounds in Balb/c mouse (♀) following single dose administration. The day before administration, mice were fasted overnight and free access to water. Six mice were needed for each compound and the six mice were divided into two groups (n=3/group), group A and group B. Mice in group A were treated with a single 3 mg/kg dose of compound (iv). Mice in group B were treated with a single 10 mg/kg dose of compound (po). For each mouse in group A, blood samples were collected at pre-dose, and at the time point of 0.083, 0.25, 0.5, 1, 2, 4, 6, 8 and 24 h post-dose. For each mouse in group B, blood samples were collected at pre-dose, and at the time point of 0.25, 0.5, 1, 2, 3, 4, 6, 8 and 24 h post-dose. Blood samples were placed on ice until centrifugation to obtain plasma samples. The plasma samples were stored at −80° C. until analysis. The concentration of compound in plasma samples was determined using a LC-MS/MS method.

[4] = Dog pharmacokinetic study; assay type: in vivo, beagle dog; conditions: for CL / VSS / AUC0-24h / Cmax / Oral BA (F %): beagle dog; for CL / VSS: 1 mg/kg, iv; for AUC0-24h / Cmax / Oral BA (F %) / AUC0-24 h relative to the control compound Amg-510: 3 mg/kg, po
Procedure: The purpose of this study was to evaluate the pharmacokinetic properties of compounds in beagle dog following single dose administration. The day before administration, dogs were fasted overnight and free access to water. Four beagle dogs were needed for each compound and the four dogs were divided into two groups, group A and group B (one male(♂) and one female (♀) in each group). Dogs in group A were treated with a single 1 mg/kg dose of compound (iv). Dogs in group B were treated with a single 3 mg/kg dose of compound (po). For dogs in group A, blood samples were collected at pre-dose, and at the time point of 0.083, 0.25, 0.5, 1, 2, 4, 6, 8 and 24 h post-dose. For dogs in group B, blood samples were collected at pre-dose, and at the time point of 0.25, 0.5, 1, 2, 4, 6, 8 and 24 h post-dose. Blood samples were placed on ice until centrifugation to obtain plasma samples. The plasma samples were stored at −80° C. until analysis. The concentration of compound in plasma samples was determined using a LC-MS/MS method.

[5] = test system: NCI-H1373 (KRAS^G12C) xenograft; experiment: Efficacy in NCI-H1373 (KRAS G12C) xenograft model; assay type: in vivo, BALB/c nude mice; conditions: 10 mg/kg, QD
Procedure: NCI-H1373 (KRAS^G12C) cells (5.0E+06 cells) were injected subcutaneously into the right flank of female BALB/c nude mice (6-8 weeks) in a mixture with PBS and Matrigel (Corning) (PBS/Matrigel=1:1(v/v)). Mice were monitored daily and caliper measurements began when tumors became visible. Tumor volume was calculated by measuring two perpendicular diameters using the formula: (L*W^2)/2 in which L and W refer to the length and width tumor diameter respectively. When the average tumor volume reached 150-200 mm^3, mice were grouped randomly (n=6/group) and treated with compounds. Tumor volume and mice weight was measured twice a week during treatment (˜ 3 weeks). Tumor growth inhibition rates were calculated by TGI %=(1−(Vt−Vt0)/(Vc−Vc0))*100%, wherein Vc and Vt are the mean tumor volume of control and treated groups at the end of the study respectively, and Vc0 and Vt0 are the mean tumor volume of control and treated groups at the start respectively. The results are in the following Table 7 and FIG. 1: […]

[6] = test system: SW837 (KRAS^G12C) xenograft; experiment: Safety exploration in SW837 (KRAS G12C) xenograft model; assay type: in vivo; conditions: 400 mg/kg, po, QD for 22 days, female NOD SCID mice, FIG. 2
Procedure: SW837 (KRAS^G12C) cells (1.0E+07 cells) were injected subcutaneously into the right flank of female NOD SCID mice (6-8 weeks) in a mixture with PBS and Matrigel (Corning) (PBS/Matrigel=1:1(v/v)). Mice were monitored daily and caliper measurements began when tumors became visible. Tumor volume was calculated by measuring two perpendicular diameters using the following formula: (L*W^2)/2 in which L and W refer to the length and width tumor diameter respectively. After mice were grouped to study the efficacy, the remaining mice (n=8) were used to explore the safety. The mice were treated with 400 mg/kg Compound 2-1 (po, QD) for 22 days, and mice body weight was measured twice a week during treatment. From FIG. 2, it can be seen that the Compound 2-1 has good safety.

[7] = Balb/c mouse (female), 3 mg/kg, iv
[8] = Balb/c mouse (female), 10 mg/kg, po

HIS-KRAS(G12C), sequence (P01116 other isoform, or with tags, fused parts or gaps G12C): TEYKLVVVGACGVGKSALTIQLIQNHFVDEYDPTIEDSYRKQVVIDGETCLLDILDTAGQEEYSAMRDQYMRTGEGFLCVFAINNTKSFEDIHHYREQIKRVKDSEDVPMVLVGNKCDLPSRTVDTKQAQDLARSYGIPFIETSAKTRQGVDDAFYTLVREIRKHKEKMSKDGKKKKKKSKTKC

Compound: C=CC(=O)N1CCN(c2nc(=O)n(-c3c(C)ccnc3C(C)C)c3nc(-c4c(N)c(F)c(F)c(F)c4F)c(F)cc23)[C@@H](C)C1 (atropisomer, axis not shown; (M)) [Compound 2-1, (M)-4-((S)-4-acryloyl-2-methylpiperazin-1-yl)-7-(2-amino-3,4,5,6-tetrafluorophenyl)-6-fluoro-1-(2-isopropyl-4-methylpyridin-3-yl)pyrido[2,3-d]pyrimidin-2(1H)-one]
- IC50 ([1]; GDP-loaded HIS-KRAS(G12C), 1 hour pre-incubation, TR-FRET): 1.19 nM
- Inhibitory activity relative to the control compound Amg-510 ([1]; SOS1 catalyzed nucleotide exchange assay): about 2 times
- IC50 ([2]; 2 hours incubation, read-out: p-ERK IC50): 14.5 nM
- Inhibitory activity relative to the control compound Amg-510 ([2]; phospho-ERK1/2 HTRF assay): about 2 times
- CL [3, 7]: 38.9 mL/min/kg
- Vss [3, 7]: 1.28 L/kg
- AUC0-24h [3, 8]: 2618 ng·h/mL
- Cmax [3, 8]: 2440 ng/mL
- Oral BA (F %) [3, 8]: 58.9%
- Pharmacokinetic properties in words ([3]; mouse model, 3 mg/kg iv and 10 mg/kg po): good pharmacokinetic properties
- Pharmacokinetic properties in words ([4]; beagle dog model, compared with Amg-510): excellent pharmacokinetic properties
- CL ([4]; female): 4.40 mL/min/kg
- VSS ([4]; female): 0.295 L/kg
- AUC0-24h ([4]; female): 5022 ng·h/mL
- Cmax ([4]; female): 2330 ng/mL
- Oral BA (F %) ([4]; female): 44.3%
- CL ([4]; male): 4.15 mL/min/kg
- VSS ([4]; male): 0.255 L/kg
- AUC0-24h ([4]; male): 7308 ng·h/mL
- Cmax ([4]; male): 4080 ng/mL
- Oral BA (F %) ([4]; male): 60.9%
- AUC0-24 h relative to the control compound Amg-510 ([4]; female beagle dog): more than 12 times
- AUC0-24 h relative to the control compound Amg-510 ([4]; male beagle dog): more than 3 times
- Tumor response in words ([5]; Table 7 and FIG. 1): regression of the tumor has been observed
- Tumor volume at the end (Day 21) ([5]; female BALB/c nude mice, Day 21): 27 mm^3
- Tumor volume at the start ([5]; female BALB/c nude mice, baseline): 192 mm^3
- TGI % ([5]; female BALB/c nude mice, end of study (Day 21)): 110%
- Safety judged from mice body weight [6]: good safety
